Test results reported in the supplement of paper PMC10307832.

Tests used:
Test in all cases: relative viability (nuclei count vs DMSO), 5 days (fraction); higher = more cells survive
[1] = compound: CNC(=O)c1ccccc1Sc1ccc2c(/C=C/c3ccccn3)n[nH]c2c1 [Axitinib] + CC(=O)Nc1cccc(-n2c(=O)n(C3CC3)c(=O)c3c(Nc4ccc(I)cc4F)n(C)c(=O)c(C)c32)c1 [Trametinib] (partner 0.02 µM)
In short: (§1)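 Dosing by pin tool came one day after lung cancer cell lines were seeded in 1536-well plates, using either one drug or a fixed anchor-drug dose plus five library-drug doses (not always all listed) in √10 steps. After 5 days, nuclei were counted on 4× images. Relative viability is treated-well nuclei count divided by vehicle-well nuclei count, and values are medians of duplicate plates.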

[2] = compound: CC1=CC=C(C=C1)C(=O)CN2C3=C(CCCC3)SC2=N [Pifithrin_alpha] + N=C(N)NC(=N)NCCc1ccccc1 [Phenformin] (partner 250 µM)
In short: as §1

[3] = compound: CC1=CC=C(C=C1)C(=O)CN2C3=C(CCCC3)SC2=N [Pifithrin_alpha] + CC1(C)CCC(c2ccc(Cl)cc2)=C(CN2CCN(c3ccc(C(=O)NS(=O)(=O)c4ccc(N[C@H](CCN5CCOCC5)CSc5ccccc5)c(S(=O)(=O)C(F)(F)F)c4)cc3)CC2)C1 [Navitoclax] (partner 0.5 µM)
In short: as §1

[4] = compound: CNC(=O)c1ccccc1Sc1ccc2c(/C=C/c3ccccn3)n[nH]c2c1 [Axitinib] + CCNC(=O)c1noc(-c2cc(C(C)C)c(O)cc2O)c1-c1ccc(CN2CCOCC2)cc1 [Luminespib] (partner 0.01 µM)
In short: as §1

With H3255 the relative viability ([1]; first compound 0.005 µM) was 0.573, the relative viability ([1]; first compound 0.05 µM) was 0.551 and the relative viability ([1]; first compound 0.1581 µM) was 0.486. It also gave a relative viability ([1]; first compound 0.5 µM) of 0.558, a relative viability ([2]; first compound 1 µM) of 0.364 and a relative viability ([2]; first compound 3.162 µM) of 0.97. For the same cell line, the relative viability ([2]; first compound 10 µM) was 0.384, the relative viability ([2]; first compound 31.62 µM) was 0.389 and the relative viability ([2]; first compound 100 µM) was 0.342. For the same cell line, the relative viability ([3]; first compound 1 µM) was 0.376, the relative viability ([3]; first compound 3.162 µM) was 0.428 and the relative viability ([3]; first compound 10 µM) was 0.444. The relative viability ([3]; first compound 31.62 µM) was 0.434, the relative viability ([3]; first compound 100 µM) was 0.497 and the relative viability ([4]; first compound 0.005 µM) was 0.922. For the same cell line, the relative viability ([4]; first compound 0.01581 µM) was 0.609, the relative viability ([4]; first compound 0.05 µM) was 0.935 and the relative viability ([4]; first compound 0.1581 µM) was 0.83. The relative viability ([4]; first compound 0.5 µM) was 0.828.

For NCI-H1915, the relative viability ([1]; first compound 0.005 µM) was 0.34, the relative viability ([1]; first compound 0.01581 µM) was 0.299 and the relative viability ([1]; first compound 0.05 µM) was 0.312. It also gave a relative viability ([1]; first compound 0.1581 µM) of 0.298, a relative viability ([1]; first compound 0.5 µM) of 0.33 and a relative viability ([2]; first compound 1 µM) of 0.385. For the same cell line, the relative viability ([2]; first compound 3.162 µM) was 0.424, the relative viability ([2]; first compound 100 µM) was 0.435 and the relative viability ([3]; first compound 1 µM) was 0.791. For the same cell line, the relative viability ([3]; first compound 3.162 µM) was 0.793, the relative viability ([3]; first compound 10 µM) was 0.788 and the relative viability ([3]; first compound 100 µM) was 0.801. The relative viability ([4]; first compound 0.005 µM) was 0.787, the relative viability ([4]; first compound 0.01581 µM) was 0.795 and the relative viability ([4]; first compound 0.05 µM) was 0.902. The relative viability ([4]; first compound 0.1581 µM) was 0.84 and the relative viability ([4]; first compound 0.5 µM) was 0.861.

With NCI-H661 the relative viability ([1]; first compound 0.005 µM) was 0.594, the relative viability ([1]; first compound 0.01581 µM) was 0.5 and the relative viability ([1]; first compound 0.05 µM) was 0.578. The relative viability ([1]; first compound 0.1581 µM) was 0.556, the relative viability ([1]; first compound 0.5 µM) was 0.583 and the relative viability ([2]; first compound 1 µM) was 0.24. The relative viability ([2]; first compound 3.162 µM) was 0.29, the relative viability ([2]; first compound 10 µM) was 0.292 and the relative viability ([2]; first compound 31.62 µM) was 0.308. The relative viability ([2]; first compound 100 µM) was 0.282, the relative viability ([4]; first compound 0.005 µM) was 0.901 and the relative viability ([4]; first compound 0.01581 µM) was 0.924. For the same cell line, the relative viability ([4]; first compound 0.05 µM) was 0.9, the relative viability ([4]; first compound 0.1581 µM) was 0.998 and the relative viability ([4]; first compound 0.5 µM) was 0.952.

For NCI-H1648, the relative viability ([1]; first compound 0.005 µM) was 0.622, the relative viability ([1]; first compound 0.01581 µM) was 0.553 and the relative viability ([1]; first compound 0.05 µM) was 0.335. The relative viability ([1]; first compound 0.1581 µM) was 0.525 and the relative viability ([1]; first compound 0.5 µM) was 0.509.

NCI-H358 showed a relative viability ([1]; first compound 0.005 µM) of 0.137, a relative viability ([1]; first compound 0.01581 µM) of 0.13 and a relative viability ([1]; first compound 0.05 µM) of 0.144. The relative viability ([1]; first compound 0.1581 µM) was 0.125, the relative viability ([1]; first compound 0.5 µM) was 0.14 and the relative viability ([2]; first compound 1 µM) was 0.353. It also gave a relative viability ([2]; first compound 3.162 µM) of 0.389, a relative viability ([2]; first compound 10 µM) of 0.357 and a relative viability ([2]; first compound 31.62 µM) of 0.272. It also gave a relative viability ([2]; first compound 100 µM) of 0.344, a relative viability ([4]; first compound 0.005 µM) of 0.478 and a relative viability ([4]; first compound 0.01581 µM) of 0.364. For the same cell line, the relative viability ([4]; first compound 0.05 µM) was 0.436, the relative viability ([4]; first compound 0.1581 µM) was 0.338 and the relative viability ([4]; first compound 0.5 µM) was 0.325.

Calu-6 was tested, and the relative viability ([3]; first compound 1 µM) was 0.976, the relative viability ([3]; first compound 3.162 µM) was 0.741 and the relative viability ([3]; first compound 10 µM) was 0.781. It also gave a relative viability ([3]; first compound 31.62 µM) of 0.508 and a relative viability ([3]; first compound 100 µM) of 0.704.

In the case of NCI-H1563, the relative viability ([2]; first compound 1 µM) is reported as 0.622, the relative viability ([2]; first compound 3.162 µM) is reported as 0.706 and the relative viability ([2]; first compound 10 µM) is reported as 0.643. For the same cell line, the relative viability ([2]; first compound 31.62 µM) was 0.601, the relative viability ([2]; first compound 100 µM) was 0.616 and the relative viability ([4]; first compound 0.005 µM) was 0.401. For the same cell line, the relative viability ([4]; first compound 0.01581 µM) was 0.594, the relative viability ([4]; first compound 0.05 µM) was 0.487 and the relative viability ([4]; first compound 0.1581 µM) was 0.549. For the same cell line, the relative viability ([4]; first compound 0.5 µM) was 0.446.

In the case of EBC-1, the relative viability ([3]; first compound 1 µM) is reported as 0.386, the relative viability ([3]; first compound 3.162 µM) is reported as 0.318 and the relative viability ([3]; first compound 10 µM) is reported as 0.29. It also gave a relative viability ([3]; first compound 31.62 µM) of 0.221 and a relative viability ([3]; first compound 100 µM) of 0.224.

NCI-H1703 was tested, and the relative viability ([3]; first compound 1 µM) was 1.34, the relative viability ([3]; first compound 3.162 µM) was 0.99 and the relative viability ([3]; first compound 10 µM) was 1.1. The relative viability ([3]; first compound 31.62 µM) was 0.674 and the relative viability ([3]; first compound 100 µM) was 1.12.

Cell Line SW 900 has a relative viability ([1]; first compound 0.005 µM) of 0.915, a relative viability ([1]; first compound 0.05 µM) of 0.926 and a relative viability ([1]; first compound 0.1581 µM) of 0.687. It also gave a relative viability ([1]; first compound 0.5 µM) of 0.943, a relative viability ([2]; first compound 1 µM) of 0.519 and a relative viability ([2]; first compound 3.162 µM) of 0.605. For the same cell line, the relative viability ([2]; first compound 10 µM) was 0.715, the relative viability ([2]; first compound 31.62 µM) was 0.569 and the relative viability ([2]; first compound 100 µM) was 0.393. It also gave a relative viability ([4]; first compound 0.005 µM) of 0.167, a relative viability ([4]; first compound 0.01581 µM) of 0.162 and a relative viability ([4]; first compound 0.05 µM) of 0.159. It also gave a relative viability ([4]; first compound 0.1581 µM) of 0.185 and a relative viability ([4]; first compound 0.5 µM) of 0.18.

With NCI-H1299 the relative viability ([3]; first compound 1 µM) was 1.07, the relative viability ([3]; first compound 3.162 µM) was 1.08 and the relative viability ([3]; first compound 10 µM) was 1. It also gave a relative viability ([3]; first compound 31.62 µM) of 0.952 and a relative viability ([3]; first compound 100 µM) of 1.

NCI-H522 gave a relative viability ([1]; first compound 0.005 µM) of 0.87, a relative viability ([1]; first compound 0.01581 µM) of 0.752 and a relative viability ([1]; first compound 0.05 µM) of 0.853. The relative viability ([1]; first compound 0.1581 µM) was 0.633, the relative viability ([1]; first compound 0.5 µM) was 0.81 and the relative viability ([2]; first compound 1 µM) was 0.736. The relative viability ([2]; first compound 3.162 µM) was 0.63, the relative viability ([2]; first compound 10 µM) was 0.65 and the relative viability ([2]; first compound 31.62 µM) was 0.673. It also gave a relative viability ([2]; first compound 100 µM) of 0.693, a relative viability ([4]; first compound 0.005 µM) of 1.28 and a relative viability ([4]; first compound 0.01581 µM) of 1.18. For the same cell line, the relative viability ([4]; first compound 0.05 µM) was 1.02, the relative viability ([4]; first compound 0.1581 µM) was 0.998 and the relative viability ([4]; first compound 0.5 µM) was 1.02.

Cell Line A549 has a relative viability ([2]; first compound 3.162 µM) of 0.272, a relative viability ([2]; first compound 10 µM) of 0.374 and a relative viability ([2]; first compound 31.62 µM) of 0.315. The relative viability ([2]; first compound 100 µM) was 0.305, the relative viability ([3]; first compound 1 µM) was 1.37 and the relative viability ([3]; first compound 3.162 µM) was 1.26. For the same cell line, the relative viability ([3]; first compound 10 µM) was 1.14, the relative viability ([3]; first compound 31.62 µM) was 0.985 and the relative viability ([3]; first compound 100 µM) was 1.29.
